Results reported in ChEMBL document CHEMBL1130491, “Nonpeptide bradykinin antagonist analogs based on a model of a Sterling-Winthrop nonpeptide bradykinin antagonist overlapped with cyclic hexapeptide bradykinin antagonist peptides” (Bioorg Med Chem Lett, 1997).

What was measured:
[1] = Binding affinity towards human Bradykinin receptor, activity expressed as Kd
Substance-P receptor = Substance-P receptor (Homo sapiens, UniProt P25103); experiment: Binding affinity towards Tachykinin receptor 1, activity expressed as Kd
Sequence of Substance-P receptor (P25103 whole entry): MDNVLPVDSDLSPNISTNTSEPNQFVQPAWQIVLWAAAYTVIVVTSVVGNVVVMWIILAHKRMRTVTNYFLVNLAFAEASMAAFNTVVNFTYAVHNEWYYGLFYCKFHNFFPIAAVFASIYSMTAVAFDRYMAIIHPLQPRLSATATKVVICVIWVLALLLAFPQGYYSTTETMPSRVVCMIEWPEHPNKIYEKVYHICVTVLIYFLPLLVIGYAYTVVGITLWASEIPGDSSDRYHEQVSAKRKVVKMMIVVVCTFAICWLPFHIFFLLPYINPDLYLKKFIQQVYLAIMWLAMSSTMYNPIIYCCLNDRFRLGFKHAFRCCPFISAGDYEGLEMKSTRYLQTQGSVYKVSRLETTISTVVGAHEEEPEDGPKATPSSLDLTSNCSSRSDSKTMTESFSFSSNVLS

| Kd [1] [nM] | Kd (Substance-P receptor) [nM] | SMILES |
| --- | --- | --- |
| 450 | – | NCc1ccc(NC(=O)[C@@H](Cc2ccc3ccccc3c2)N=C(NC2CCCCC2)NC2CCCCC2)cc1 |
| 330 | 1100 | N=C(N)NCc1ccc(NC(=O)[C@H](Cc2ccc3ccccc3c2)N=C(NC2CCCCC2)NC2CCCCC2)cc1 |
| 1500 | – | O=C(Nc1ccc(CO)cc1)[C@@H](Cc1ccc2ccccc2c1)N=C(NC1CCCCC1)NC1CCCCC1 |
| 460 | 1800 | CC/N=C(\NCC)NCc1ccc(NC(=O)[C@H](Cc2ccc3ccccc3c2)N=C(NC2CCCCC2)NC2CCCCC2)cc1 |
| 690 | 3800 | NCc1ccc(NC(=O)[C@H](Cc2ccc3ccccc3c2)N=C(NC2CCCCC2)NC2CCCCC2)c(C(=O)O)c1 |
| 200 | 860 | N=C(N)NCc1ccc(NC(=O)[C@@H](Cc2ccc3ccccc3c2)N=C(NC2CCCCC2)NC2CCCCC2)cc1 |
| 800 | 1300 | NCc1ccc(NC(=O)[C@H](Cc2ccc3ccccc3c2)N=C(NC2CCCCC2)NC2CCCCC2)cc1 |

The remaining lines, values behind:

| SMILES | Kd [1] [nM] | Kd (Substance-P receptor) [nM] |
| --- | --- | --- |
| CCCC[N+](CCCC)(CCCC)Cc1ccc(NC(=O)[C@@H](Cc2ccc3ccccc3c2)N=C(NC2CCCCC2)NC2CCCCC2)cc1 | 79 | 290 |
| CCCC[N+](CCCC)(CCCC)Cc1ccc(NC(=O)[C@H](Cc2ccc3ccccc3c2)N=C(NC2CCCCC2)NC2CCCCC2)cc1 | 98 | 540 |
| O=C(Nc1ccc(CO)cc1)[C@H](Cc1ccc2ccccc2c1)N/C(=N/C1CCCCC1)NC1CCCCC1 | 2100 | – |
| N=C(N)NCCC[C@@H](NC(=O)C12CC3CC(CC(C3)C1)C2)C(=O)NCc1ccc(NC(=O)[C@H](Cc2ccc3ccccc3c2)N=C(NC2CCCCC2)NC2CCCCC2)cc1 | 990 | – |
| NC(N)=NCCC[C@H](N)C(=O)NCc1ccc(NC(=O)[C@H](Cc2ccc3ccccc3c2)N=C(NC2CCCCC2)NC2CCCCC2)cc1 | 390 | 1500 |
| CCCC[P+](CCCC)(CCCC)Cc1ccc(NC(=O)[C@H](Cc2ccc3ccccc3c2)N=C(NC2CCCCC2)NC2CCCCC2)cc1 | 340 | 670 |
| CCCC[P+](CCCC)(CCCC)Cc1ccc(NC(=O)[C@H](Cc2ccc3ccccc3c2)NC(=O)NC2CCCCC2)cc1 | 1600 | 1300 |
| CCCC[P+](CCCC)(CCCC)Cc1ccc(NC(=O)[C@@H](Cc2ccc3ccccc3c2)N=C(NC2CCCCC2)NC2CCCCC2)cc1 | 44 | 370 |
| NCc1ccc(N(CCC(=O)O)C(=O)[C@H](Cc2ccc3ccccc3c2)N=C(NC2CCCCC2)NC2CCCCC2)cc1 | 1500 | – |
| NC(N)=NCCC[C@@H](N)C(=O)NCc1ccc(NC(=O)[C@H](Cc2ccc3ccccc3c2)N=C(NC2CCCCC2)NC2CCCCC2)cc1 | 230 | – |
